According to PubChem BioAssay AID330 (DTP/NCI, 2004):
Where “and” joins values, the source holds several entries; their conditions need not be identical. Equal values may be shown once. Toxic doses and inconclusive results are not listed.

Test system: P388 leukemia ip, CD2F1 mice, survival T/C
Experiment: NCI In Vivo Anticancer Drug Screen. Data for tumor model P388 Leukemia (intraperitoneal) in CD2F1 (CDF1) mice
Conditions: endpoint: median survival time, higher = longer survival
How it was run: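 Mice carrying the transplanted tumor received test compound or vehicle. Survival was recorded in each group, and the value is the treated-group measurement divided by that of the vehicle-treated control group.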

## Cc1c2ccncc2c(C)c2c1[nH]c1ccccc12
dose: 0.31 mg/kg/injection, schedule: Q04DX003 (iv), vehicle: water
  T/C: 99 % of control
dose: 0.63 mg/kg/injection, schedule: Q04DX003 (iv), vehicle: water
  T/C: 107 % of control
dose: 1.25 mg/kg/injection, schedule: Q04DX003 (iv), vehicle: water
  T/C: 99 % of control
dose: 1.56 mg/kg/injection, schedule: Q04DX003 (ip), vehicle: distilled water + Tween-80
  T/C: 92 % of control
dose: 2.5 mg/kg/injection, schedule: Q04DX003 (ip), vehicle: water
  T/C: 100 % of control
dose: 2.5 mg/kg/injection, schedule: Q04DX003 (iv), vehicle: distilled water + Tween-80
  T/C: 107 % of control
dose: 2.5 mg/kg/injection, schedule: Q04DX003 (iv), vehicle: water
  T/C: 94 % of control
dose: 3.12 mg/kg/injection, schedule: Q04DX003 (ip), vehicle: distilled water + Tween-80
  T/C: 100 % of control
dose: 3.13 mg/kg/injection, schedule: Q01DX009 (ip), vehicle: saline with Tween-80
  T/C: 154 % of control
dose: 3.89 mg/kg/injection, schedule: Q04DX003 (ip), vehicle: clinical formulation
  T/C: 111 % of control
dose: 5.0 mg/kg/injection, schedule: Q01DX005 (ip), vehicle: Klucel (hydroxypropylcellulose) (HPC)
  T/C: 156 % of control
dose: 5.0 mg/kg/injection, schedule: Q04DX003 (ip), vehicle: distilled water + Tween-80
  T/C: 110 % of control
dose: 5.0 mg/kg/injection, schedule: Q04DX003 (ip), vehicle: water
  T/C: 106 % of control and 110 % of control
dose: 5.0 mg/kg/injection, schedule: Q04DX003 (iv), vehicle: distilled water + Tween-80
  T/C: 100 % of control
dose: 5.0 mg/kg/injection, schedule: Q04DX003 (iv), vehicle: water
  T/C: 108 % of control
dose: 6.25 mg/kg/injection, schedule: Q01DX009 (ip), vehicle: saline with Tween-80
  T/C: 181 % of control
dose: 6.25 mg/kg/injection, schedule: Q04DX003 (ip), vehicle: clinical formulation
  T/C: 118 % of control and 119 % of control
dose: 6.25 mg/kg/injection, schedule: Q04DX003 (ip), vehicle: distilled water + Tween-80
  T/C: 100 % of control and 121 % of control
dose: 6.25 mg/kg/injection, schedule: Q04DX003 (ip), vehicle: saline with Tween-80
  T/C: 161 % of control
dose: 6.25 mg/kg/injection, schedule: Q04DX003 (ip), vehicle: saline
  T/C: 112 % of control
dose: 6.48 mg/kg/injection, schedule: Q04DX003 (ip), vehicle: clinical formulation
  T/C: 108 % of control
dose: 8.0 mg/kg/injection, schedule: Q01DX005 (ip), vehicle: saline with Tween-80
  T/C: 160 % of control
dose: 8.0 mg/kg/injection, schedule: Q01DX005 (iv), vehicle: saline with Tween-80
  T/C: 115 % of control
dose: 10.0 mg/kg/injection, schedule: Q01DX005 (ip), vehicle: Klucel (hydroxypropylcellulose) (HPC)
  T/C: 153 % of control
dose: 10.0 mg/kg/injection, schedule: Q01DX005 (ip), vehicle: saline with Tween-80
  T/C: 166 % of control
dose: 10.0 mg/kg/injection, schedule: Q04DX003 (ip), vehicle: distilled water + Tween-80
  T/C: 118 % of control
dose: 10.0 mg/kg/injection, schedule: Q04DX003 (ip), vehicle: water
  T/C: 112 % of control
dose: 10.0 mg/kg/injection, schedule: Q04DX003 (iv), vehicle: distilled water + Tween-80
  T/C: 124 % of control
dose: 10.0 mg/kg/injection, schedule: Q04DX003 (iv), vehicle: water
  T/C: 112 % of control
dose: 10.8 mg/kg/injection, schedule: Q04DX003 (ip), vehicle: clinical formulation
  T/C: 110 % of control
dose: 12.5 mg/kg/injection, schedule: Q01DX009 (ip), vehicle: saline with Tween-80
  T/C: 195 % of control and 204 % of control
dose: 12.5 mg/kg/injection, schedule: Q04DX002 (ip), vehicle: Klucel (hydroxypropylcellulose) (HPC)
  T/C: 150 % of control
dose: 12.5 mg/kg/injection, schedule: Q04DX003 (ip), vehicle: alkali diluted with water
  T/C: 164 % of control
dose: 13.0 mg/kg/injection, schedule: Q04DX003 (ip), vehicle: water
  T/C: 123 % of control
dose: 16.0 mg/kg/injection, schedule: Q01DX005 (ip), vehicle: saline with Tween-80
  T/C: 189 % of control
dose: 16.0 mg/kg/injection, schedule: Q01DX005 (iv), vehicle: saline with Tween-80
  T/C: 117 % of control
dose: 16.0 mg/kg/injection, schedule: Q01DX005 (oral), vehicle: saline with Tween-80
  T/C: 155 % of control
dose: 18.0 mg/kg/injection, schedule: Q04DX003 (ip), vehicle: clinical formulation
  T/C: 110 % of control
dose: 20.0 mg/kg/injection, schedule: Q01DX005 (ip), vehicle: Klucel (hydroxypropylcellulose) (HPC)
  T/C: 176 % of control and 177 % of control
dose: 20.0 mg/kg/injection, schedule: Q01DX005 (ip), vehicle: saline with Tween-80
  T/C: 200 % of control
dose: 20.0 mg/kg/injection, schedule: Q01DX005 (iv), vehicle: saline with Tween-80
  T/C: 111 % of control
